# Measured values from PubChem BioAssay AID1259407 (Chemical Carcinogenesis Research Information System (CCRIS), 2018).
# Active and inactive are the calls of the source. How the calls were made is not given here.
# System: CCRIS mutagenicity, Ames/micronucleus/aberration tests
# Test: CCRIS mutagenicity studies
# [1] = Test System: AMES SALMONELLA TYPHIMURIUM, Strain/Indicator: TA98, Metabolic Activation: NONE, Method: STANDARD PLATE
# [2] = Test System: AMES SALMONELLA TYPHIMURIUM, Strain/Indicator: TA100, Metabolic Activation: NONE, Method: STANDARD PLATE
structure (smiles),measurement,setting,value
COc1ccc(C(=O)N2CCN(c3ccc4c(c3)CCC(=O)N4)CC2)cc1OC,mutagenic call,"Test System: AMES SALMONELLA TYPHIMURIUM, Strain/Indicator: TA97, Metabolic Activation: NONE, Method: STANDARD PLATE",inactive; negative
same,mutagenic call,"Test System: AMES SALMONELLA TYPHIMURIUM, Strain/Indicator: TA97, Metabolic Activation: S-9, Method: STANDARD PLATE",inactive; negative
same,mutagenic call,"Test System: AMES SALMONELLA TYPHIMURIUM, Strain/Indicator: TA98, Metabolic Activation: NONE, Method: PREINCUBATION",inactive; negative
same,mutagenic call,[1],inactive; negative
same,mutagenic call,"Test System: AMES SALMONELLA TYPHIMURIUM, Strain/Indicator: TA98, Metabolic Activation: RAT, LIVER, S-9, Method: PREINCUBATION",inactive; negative
same,mutagenic call,"Test System: AMES SALMONELLA TYPHIMURIUM, Strain/Indicator: TA98, Metabolic Activation: S-9, Method: STANDARD PLATE",inactive; negative
same,mutagenic call,"Test System: AMES SALMONELLA TYPHIMURIUM, Strain/Indicator: TA100, Metabolic Activation: NONE, Method: PREINCUBATION",inactive; negative
same,mutagenic call,[2],inactive; negative
same,mutagenic call,"Test System: AMES SALMONELLA TYPHIMURIUM, Strain/Indicator: TA100, Metabolic Activation: RAT, LIVER, S-9, Method: PREINCUBATION",inactive; negative
same,mutagenic call,"Test System: AMES SALMONELLA TYPHIMURIUM, Strain/Indicator: TA102, Metabolic Activation: NONE, Method: STANDARD PLATE",inactive; negative
same,mutagenic call,"Test System: AMES SALMONELLA TYPHIMURIUM, Strain/Indicator: TA102, Metabolic Activation: S-9, Method: STANDARD PLATE",inactive; negative
same,mutagenic call,"Test System: AMES SALMONELLA TYPHIMURIUM, Strain/Indicator: TA1535, Metabolic Activation: NONE, Method: PREINCUBATION",inactive; negative
same,mutagenic call,"Test System: AMES SALMONELLA TYPHIMURIUM, Strain/Indicator: TA1535, Metabolic Activation: RAT, LIVER, S-9, Method: PREINCUBATION",inactive; negative
same,mutagenic call,"Test System: AMES SALMONELLA TYPHIMURIUM, Strain/Indicator: TA1537, Metabolic Activation: NONE, Method: PREINCUBATION",inactive; negative
same,mutagenic call,"Test System: AMES SALMONELLA TYPHIMURIUM, Strain/Indicator: TA1537, Metabolic Activation: RAT, LIVER, S-9, Method: PREINCUBATION",inactive; negative
same,mutagenic call,"Test System: AMES SALMONELLA TYPHIMURIUM, Strain/Indicator: TA1538, Metabolic Activation: NONE, Method: PREINCUBATION",inactive; negative
same,mutagenic call,"Test System: AMES SALMONELLA TYPHIMURIUM, Strain/Indicator: TA1538, Metabolic Activation: RAT, LIVER, S-9, Method: PREINCUBATION",inactive; negative
same,mutagenic call,"Test System: E. COLI, Strain/Indicator: WP2 UVRA, Metabolic Activation: NONE, Method: PREINCUBATION",inactive; negative
same,mutagenic call,"Test System: E. COLI, Strain/Indicator: WP2 UVRA, Metabolic Activation: RAT, LIVER, S-9, Method: PREINCUBATION",inactive; negative
Cc1ccc2nc(-c3ccc(N)cc3)sc2c1,mutagenic call,"Test System: AMES SALMONELLA TYPHIMURIUM, Strain/Indicator: 1537, Metabolic Activation: NONE, Method: STANDARD PLATE",inactive; negative
same,mutagenic call,"Test System: AMES SALMONELLA TYPHIMURIUM, Strain/Indicator: TA98, Metabolic Activation: HAMSTER, LIVER, S-9, AROCLOR 1254, Method: STANDARD PLATE",active; positive
same,mutagenic call,[1],inactive; negative
same,mutagenic call,"Test System: AMES SALMONELLA TYPHIMURIUM, Strain/Indicator: TA98, Metabolic Activation: RAT, LIVER, S-9, AROCLOR 1254, Method: STANDARD PLATE",active; positive
same,mutagenic call,"Test System: AMES SALMONELLA TYPHIMURIUM, Strain/Indicator: TA100, Metabolic Activation: HAMSTER, LIVER, S-9, AROCLOR 1254, Method: STANDARD PLATE",active; positive
same,mutagenic call,[2],inactive; negative
same,mutagenic call,"Test System: AMES SALMONELLA TYPHIMURIUM, Strain/Indicator: TA100, Metabolic Activation: RAT, LIVER, S-9, AROCLOR 1254, Method: STANDARD PLATE",active; positive
same,mutagenic call,"Test System: AMES SALMONELLA TYPHIMURIUM, Strain/Indicator: TA1535, Metabolic Activation: HAMSTER, LIVER, S-9, AROCLOR 1254, Method: STANDARD PLATE",inactive; negative
same,mutagenic call,"Test System: AMES SALMONELLA TYPHIMURIUM, Strain/Indicator: TA1535, Metabolic Activation: RAT, LIVER, S-9, AROCLOR 1254, Method: STANDARD PLATE",inactive; negative
same,mutagenic call,"Test System: AMES SALMONELLA TYPHIMURIUM, Strain/Indicator: TA1537, Metabolic Activation: HAMSTER, LIVER, S-9, AROCLOR 1254, Method: STANDARD PLATE",active; positive
same,mutagenic call,"Test System: AMES SALMONELLA TYPHIMURIUM, Strain/Indicator: TA1537, Metabolic Activation: RAT, LIVER, S-9, AROCLOR 1254, Method: STANDARD PLATE",active; positive
same,mutagenic call,"Test System: AMES SALMONELLA TYPHIMURIUM, Strain/Indicator: TA1538, Metabolic Activation: HAMSTER, LIVER, S-9, AROCLOR 1254, Method: STANDARD PLATE",active; positive
same,mutagenic call,"Test System: AMES SALMONELLA TYPHIMURIUM, Strain/Indicator: TA1538, Metabolic Activation: NONE, Method: STANDARD PLATE",inactive; negative
same,mutagenic call,"Test System: AMES SALMONELLA TYPHIMURIUM, Strain/Indicator: TA1538, Metabolic Activation: RAT, LIVER, S-9, AROCLOR 1254, Method: STANDARD PLATE",active; positive
same,mutagenic call,"Test System: MOUSE LYMPHOMA, Strain/Indicator: L5178Y (TK+/TK-), Metabolic Activation: NONE, Method: SUSPENSION/PLATE",active; positive. reevaluation of results: positive
same,mutagenic call,"Test System: MOUSE LYMPHOMA, Strain/Indicator: L5178Y (TK+/TK-), Metabolic Activation: RAT, LIVER, S-9, AROCLOR 1254, Method: SUSPENSION/PLATE",active; positive. reevaluation of results: positive
